Experimental findings from patent publication EP0307071B1, “Flavor and fragrance enhancing enzymes” (YISSUM RESEARCH DEVELOPMENT COMPANY OF THE HEBREW …, priority 1987, dated 1989) are described below.

Like-named read-outs stand apart in the source and are kept apart here.

The assay has as its target T1, Aspergillus niger B1 endo-β-glucosidase B1 (strain CMI CC 324626) preparation (Aspergillus niger, UniProt A2RAL4).
T1 sequence (A2RAL4 20-860): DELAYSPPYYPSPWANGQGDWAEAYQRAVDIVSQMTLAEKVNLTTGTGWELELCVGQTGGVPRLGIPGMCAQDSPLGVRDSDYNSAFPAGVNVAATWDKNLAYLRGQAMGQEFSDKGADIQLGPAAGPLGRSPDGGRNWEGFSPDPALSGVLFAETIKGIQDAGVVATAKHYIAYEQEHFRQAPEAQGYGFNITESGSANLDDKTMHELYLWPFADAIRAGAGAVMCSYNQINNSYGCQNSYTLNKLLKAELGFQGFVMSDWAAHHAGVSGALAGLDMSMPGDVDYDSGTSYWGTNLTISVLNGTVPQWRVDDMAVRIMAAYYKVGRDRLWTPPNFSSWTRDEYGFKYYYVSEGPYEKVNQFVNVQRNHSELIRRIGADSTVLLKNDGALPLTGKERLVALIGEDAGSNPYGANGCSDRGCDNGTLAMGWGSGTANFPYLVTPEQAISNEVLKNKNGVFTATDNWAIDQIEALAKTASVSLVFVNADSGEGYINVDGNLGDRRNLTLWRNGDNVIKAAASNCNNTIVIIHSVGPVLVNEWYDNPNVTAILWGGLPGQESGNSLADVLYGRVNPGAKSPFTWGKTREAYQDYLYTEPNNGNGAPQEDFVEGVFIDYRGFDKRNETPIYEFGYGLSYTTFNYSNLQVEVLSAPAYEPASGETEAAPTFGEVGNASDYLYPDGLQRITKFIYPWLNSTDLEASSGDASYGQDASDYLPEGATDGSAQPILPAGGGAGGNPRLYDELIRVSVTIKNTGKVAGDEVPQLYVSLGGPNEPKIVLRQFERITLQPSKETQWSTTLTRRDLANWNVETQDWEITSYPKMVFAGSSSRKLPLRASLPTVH
The assay is described as follows: β-glucosidase kinetics and inhibition by standard procedures (PNPG or geranyl β rutinoside as substrates). In kind it is biochemical, Aspergillus niger B1 strain CMI CC 324626. The following applies: remaining enzyme activity. As to the method: The concentrations of free and bound monoterpenes are preferably determined according to the method of Dimitriadis et. al. (Amer J. Enol. Vitic. 35:66-71 (1984) which reference is herein incorporated by reference). The activity of the endo-β-glucosidase of the present invention is preferably determined by standard methods using either PNPG or geranyl beta rutinoside as substrates.
The β-glucosidase activity was assayed by incubating 25 µl of enzyme preparation in 1 ml of 1 mM PNPG (p-nitrophenyl-β-D-glucopyranoside) for 2 minutes at 35°. The reaction was terminated by adding 200 µl of 1M Na2CO3 and the OD was read at 399 nm.
The supernatant and the filtered samples were then separately incubated with 20 ml of 1 mg/l of wine glycosides for 20 hours at 30°. Free monoterpenes were then analyzed according to Dimitriadis et al. (Amer J. Enol. Vitic. 35:66-71 (1984)). Characterization of the A. niger B1 β-glucosidase B1 activity included the determination of pH, ionic strength, temperature, and ethanol response curves, Km, Vmax and Ki for glucose, by standard procedures. In addition, the effect of various concentrations of grape juice (Muscat of Alexandria) sucrose, fructose and SO2 on the enzyme activity was determined by conventional methods. […]

Take `O=C(CO)[C@@H](O)[C@H](O)[C@H](O)CO` [Fructose, fructose]: the activity at 1 M (1M Fructose, read-out: Activity in the presence of 1M Fructose) stood at 90%.
Take `OC[C@H]1O[C@@](CO)(O[C@H]2O[C@H](CO)[C@@H](O)[C@H](O)[C@H]2O)[C@@H](O)[C@@H]1O` [sucrose]: the activity at 1 M (1M sucrose, read-out: Activity in the presence of 1M sucrose) was 90%.
For SO2, the “Activity in the presence of 200ppm SO2” value (200ppm SO2) is reported as 100%.
